Data set [1] relates to human renal cancer cell lines A498. Kind of data set: WST-1 growth inhibition of human renal cancer cell line A498 in vitro. Particulars: for Observation of cell morphology / effect on cell growth: inverted microscope, compared with negative control; for inhibition at 15 µg/mL: final concentration 15 μg/ml; for inhibition at 60 µg/mL: final concentration 60 μg/ml; for OD value (average): WST-1, absorption at 440 nm. The class given is cell-based. As to the method: (§1) Human kidney cancer cell line A498 and mouse kidney cancer cell line RuCa; the cells were passaged prior to use, and the cells that were in a good growth state and in log phase growth were selected for use.
(§2) Then, the cells were suspended in complete medium, and the cell concentration was adjusted to 6×10^4/ml. The cells were seeded in 96 well plates at 50 μl/well […], and three multiple wells were set up for each drug concentration.
(§3) On the next day after inoculation, once cells were adherent to the wall, the drugs were added according to the following groups and then incubated for 48 h.
The storage solution of each drug was prepared into 60 μg/ml with complete medium for use; the complete medium of each test drug mentioned above (50 μl) was placed in the 96-well plate inoculated cells, […], three wells for each concentration.
Then, 10 μl WST-1 solution was added into the wells of above drug groups, negative control group, and blank control group. […]
In order to objectively evaluate the synergistic effect of the combination of the three compounds, according to the standard proposed in the non patent literature Chou T C. Theoretical basis, experimental design, and computerized simulation of synergism and antagonism in drug combination studies. [J].
A, B and C denote the doses of three components in the pharmaceutical composition; Ae, Be, and Ce denote the dose of a single component required to achieve the tumor inhibition efficiency of the pharmaceutical composition when using a single compound alone. […] The smaller the CI value is, the stronger the synergistic effect is.
Background: Tetrazolium dyes change colour on reduction, which living cells bring about.

The subject of data set [2] is mouse renal cancer cell lines RuCa. Kind of data set: WST-1 growth inhibition of mouse renal cancer cell line RuCa in vitro. The settings on record: for Observation of cell morphology / effect on cell growth / inhibition at 30 µg/mL / OD value (average): 48 h; for Observation of cell morphology / effect on cell growth: inverted microscope, compared with negative control; for Inhibition rate (%): Comparative Example 1, method of Experimental Example 1; for inhibition at 30 µg/mL: Mus musculus, read-out: Inhibition rate (%); for inhibition at 30 µg/mL / OD value (average): final concentration 30 μg/ml; for OD value (average): WST-1, absorption at 440 nm. The class given is cell-based. As to the method: as §1, §2, §3
The storage solution of each drug was prepared into 60 μg/ml with complete medium for use; the complete medium of each test drug mentioned above (50 μl) was placed in the 96-well plate inoculated cells, and the final concentration of each group was 30 μg/ml, three wells for each concentration.
Then, 10 μl WST-1 solution was added into the wells of above drug groups, negative control group, and blank control group. After the cells were incubated in 37° C. incubator for 4 h, the absorption values of different drug groups, negative control group and blank control group were measured at 440 nm by μ-Quant microplate analyzer.

Data set [3] relates to transplanted tumor RuCa in mice. Nature of the data set: Inhibitory effect on transplanted tumor RuCa in mice. The format is in vivo, mouse. The settings on record: for Tumor inhibition rate (%) / Body weight 15 d after administration / Tumor weight: 30 mg/kg ip once a day, 15 times; for Body weight 15 d after administration / Tumor weight / Body weight Before administration: x ± SD, n = 10; for Body weight Before administration: baseline. The source says:
Mouse renal cancer cell lines RuCa were established by subcutaneously inoculating in mouse axillary. The number of cells inoculated was 1×10^7, and after inoculation formed transplanted tumor, the cells were passaged in mice for 3 generations for use.
• 80 BABL/C-nu mice, half male and half female, weighing 18-22 g; 2 Experimental Method 2.1 Route of Administration
intraperitoneal injection (ip)
The tumor tissue in vigorous growth stage was cut into about 1.5 mm^3 and homogenized under aseptic conditions to prepare 1×10^7/ml cell suspension. 80 mice of the above specifications were inoculated subcutaneously in the right armpit with 0.1 ml cell suspension. On the second day after inoculation, the mice were weighed and randomly divided into 8 groups, with 10 mice in each group, that were test drug 1 group, test drug 2 group, test drug 3 group, test drug 4 group, test drug 5 group, test drug 6 group, test drug 7 group, and negative control group. The test drug group was administrated by intraperitoneal injection (ip), 30 mg/kg/time, once a day, and the administration was successively performed 15 times. The negative group was intraperitoneally injected with the same dose of normal saline, once a day, and the mice were weighed before administration.
At the end of administration, the experiment was stopped, and the mice were killed by cervical dislocation and weighed. The tumor was stripped, and the tumor inhibition rate was calculated.

Setting [4] is: Homo sapiens, A498, read-out: Inhibition rate (%).
Where [5] appears, read: Homo sapiens, A498, final concentration 30 μg/ml (Table 3), read-out: Inhibition rate (%).
The mark [6] stands for this setting: Homo sapiens, A498, final concentration 30 μg/ml, 48 h, read-out: Inhibition rate (%).
The mark [7] stands for this setting: final concentration 30 μg/ml, 48 h.

Consider 5 molecules from patent US12156861B2, “Pharmaceutical composition for treating kidney cancer and application thereof” (SICHUAN JIUZHANG BIOLOGICAL SCIENCE AND TECHNOLOGY CO., LTD., priority 2018, dated 2024).

Read-outs that look alike come from different tables or passages of the source.

In general, inhibition refers to the relative decrease from the control value, in per cent. As to `O=C(/C=C/c1ccc(O)c(O)c1)O[C@@H]1C[C@](O)(C(=O)O)C[C@@H](O)[C@H]1O` [Chlorogenic acid, chlorogenic acid], in data set [1] (48 h), the “Observation of cell morphology / effect on cell growth” value is listed as “certain effect on cell growth”. In data set [1] (setting [4]), the inhibition at 15 µg/mL was 15.7% and the inhibition at 60 µg/mL stood at 61.3%. Besides, in data set [1] (setting [5]), the inhibition at 30 µg/mL is 37.2%. Besides, the inhibition at 30 µg/mL in data set [1] (setting [6]) amounted to 36.5%. Besides, the “OD value (average)” value in data set [1] (setting [7]) stood at 1.494. Also, in data set [2], the “Observation of cell morphology / effect on cell growth” value is listed as “certain effect on cell growth”, the “Inhibition rate (%)” value came to 37.29%, the inhibition at 30 µg/mL is 38.5% and the “OD value (average)” value was 1.248. Besides, in data set [3], the “Tumor inhibition rate (%)” value was 33.33%, the “Body weight 15 d after administration” value amounted to 27.3 ± 1.19, the “Tumor weight” value was 1.8 ± 0.14 g and the “Body weight Before administration” value was 19.6 ± 0.98.
With `O=C(/C=C/c1ccc(O)cc1)O[C@@H]1C[C@](O)(C(=O)O)C[C@@H](O)[C@H]1O` [Coumaroylquinic acid, coumaroylquinic acid], the “Observation of cell morphology / effect on cell growth” value in data set [1] (48 h) was “almost had no effect on cell growth”. For the same molecule, in data set [1] (setting [4]), the inhibition at 15 µg/mL was 1.92% and the inhibition at 60 µg/mL was determined as 7.13%. In addition, the inhibition at 30 µg/mL in data set [1] (setting [5]) stood at 4.85%. For the same molecule, the inhibition at 30 µg/mL in data set [1] (setting [6]) was 3.13%. The “OD value (average)” value in data set [1] (setting [7]) turned out to be 2.280. In addition, in data set [2], the “Observation of cell morphology / effect on cell growth” value is given as “almost had no effect on cell growth”, the inhibition at 30 µg/mL is 5.85% and the “OD value (average)” value was 1.909. In data set [3], the “Tumor inhibition rate (%)” value turned out to be 7.41%, the “Body weight 15 d after administration” value is listed as 25.2 ± 1.42, the “Tumor weight” value stood at 2.5 ± 0.19 g and the “Body weight Before administration” value amounted to 19.4 ± 1.17.
Turning to `CNC(=O)c1cc(Oc2ccc(NC(=O)Nc3ccc(Cl)c(C(F)(F)F)c3)cc2)ccn1` [Sorafenib, sorafenib, reference compound], in data set [1] (Homo sapiens, A498, final concentration 0.1 μg/ml, read-out: Inhibition rate (%)), the inhibition at 0.1 µg/mL came out at 5.36%. Besides, the inhibition at 0.5 µg/mL in data set [1] (Homo sapiens, A498, final concentration 0.5 μg/ml, read-out: Inhibition rate (%)) is 13.8%. Further, the inhibition at 1 µg/mL in data set [1] (Homo sapiens, A498, final concentration 1 μg/ml, read-out: Inhibition rate (%)) came out at 29.4%.
With “Cinnamoylquinic acid [reference compound]”, the “Inhibition rate (%)” value in data set [2] is reported as 13.94%.
Regarding “Feruloylquinic acid [reference compound]”, the “Inhibition rate (%)” value in data set [2] is on record as 10.42%.
